Data published in patent US10202377B2, “3-(1H-benzo[D]imidazol-2-yl)-1H-pyrazolo[3,4-C]pyridine and therapeutic uses thereof” (Samumed, LLC, priority 2014, dated 2019).

Key:
[1] = system: primary human fibroblasts derived from IPF patients (LL29 cells); assay: Inhibition of fibrosis (αSMA staining) in TGF-β1-treated primary human fibroblasts from IPF patients; assay type: cell-based; conditions: Fibroblast, 96 h, TGF-β1 20 ng/mL, 4 days
In short: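 LL29 IPF fibroblasts in F12 with 1% FBS were stimulated with TGF-β1 (20 ng/mL) and incubated 4 days at 37 °C. SYTOX-positive dead cells were excluded, and αSMA-positive cells were counted by immunostaining as % of total. Values were normalized to TGF-β1/DMSO wells on the same plate, and EC50 derived.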

[2] = system: primary human mesenchymal stem cells (hMSCs); assay: Chondrogenesis induction in primary human mesenchymal stem cells (nodule imaging, Rhodamine B/Nile Red); assay type: cell-based; conditions: 6 days, dose at which the compound reached maximum chondrogenesis activity, dose range 10-2700 nM
Description: The above synthesized compounds were screened using primary human mesenchymal stem cells (hMSCs) to determine their ability to induce chondrogenesis (process by which cartilage is developed).
Human Mesenchymal Stem Cell Culture: Primary human mesenchymal stem cells (hMSCs) were purchased from Lonza (Walkersville, Md.) and expanded in Mesenchymal Stem Cell Growth Media (Lonza). Cells between passage 3 and 6 were used for the experiments.
Compound Screening: Each compound was dissolved in DMSO as a 10 mM stock and used to prepare compound source plates. Serial dilution (1:3, 6-point dose-response curves from 2700 nM to 10 nM) and compound transfer was performed using the ECHO 550 (Labcyte, Sunnyvale, Calif.) into 96-well clear bottom assay plates (Greiner Bio-One) with appropriate DMSO backfill for a final DMSO concentration of 0.03%. hMSCs were plated at 20,000 cells/well in 250 μL/well Incomplete Chondrogenic Induction Medium (Lonza; DMEM, dexamethasone, ascorbate, insulin-transferrin-selenium [ITS supplement], gentamycin-amphotericin [GA-1000], sodium pyruvate, proline and L-glutamine). TGF-β3 (10 ng/mL) was used as a positive control for differentiation while negative control wells were treated with 75 nL DMSO for normalization and calculating EC50 values. Cells were incubated at 37° C. and 5% CO2 for 6 days. To image chondrogenic nodules, the cells were fixed using 4% formaldehyde (Electron Microscopy Sciences), and stained with 2 μg/mL Rhodamine B (Sigma-Aldrich) and 20 μM Nile Red (Sigma-Aldrich) [Johnson K., et. al, A Stem Cell-Based Approach to Cartilage Repair, Science, (2012), 336(6082), 717-721]. The nodules imaged (4 images per well at 4× magnification) by excitation at 531 nm and emission at 625 nm and quantified using the CellInsight CX5 (Thermo Scientific). Number of nodules in each well was normalized to the average of 3 DMSO treated wells on the same plate using Excel (Microsoft Inc.). The normalized averages (fold change over DMSO) of 3 replicate wells for each compound concentration were calculated. Due to solubility limitations of some of the compounds, curve fitting was incomplete leading to inaccurate EC50 determinations.
Using TGF-β3 as a positive control, the concentration of test compounds required to induce equivalent levels of chondrogenesis is reported. In addition, the maximum activity of each compound and the respective dose that each compound reached maximum chondrogenesis activity is reported.

[3] = system: Wnt activity (Sp5-Luc reporter, SW480 colon carcinoma cells); assay: Sp5-Luc Wnt reporter gene screening assay in SW480 colon carcinoma cells; conditions: Homo sapiens
Description: The screening assay for Wnt activity is described as follows.
SW480 colon carcinoma cells were transduced with a lentiviral vector expressing luciferase with a human Sp5 promoter consisting of a sequence of eight TCF/LEF binding sites. SW480 cells stably expressing the Sp5-Luc reporter gene and a hygromycin resistance gene were selected by treatment with 150 μg/ml of hygromycin for 7 days. These stably transduced SW480 cells were expanded in cell culture and used for all further screening activities. For Sp5-Luc reporter gene assays, the cells were plated at 10,000 cells/well in 96-well plates with growth medium containing 10% fetal calf serum and incubated overnight at 37° C. and 5% CO2. […] Compound transfer from serially diluted source plates to assay plates containing the cells was accomplished using a pintool (Multimek 96, Beckman equipped with V&P Scientific FP1S50H pins) based liquid handling protocol. This protocol used a slotted pin to transfer 50 nl of compound from a source plate well to an assay plate well containing 50 μl of cells in growth medium. […] Control wells received 50 nl of DMSO treatment for normalization and calculating IC50 values. The treated cells were incubated at 37° C. and 5% CO2 for an additional forty-two hours. Following incubation, the growth medium was removed and 50 μl of BrightGlo luminescence reagent (Promega) was added to each well of the 96-well assay plates. The plates were placed on an orbital shaker for 5 min and then luminescence was quantified on the Victor3 (Perkin Elmer) plate reader.

| Structure (SMILES) | EC50 [1] [nM] | Conc (nM) of Max. activity [2] [nM] | IC50 [3] [nM] |
| --- | --- | --- | --- |
| CC(C)Nc1cncc(-c2cc3c(-c4nc5c(-c6cc(F)cc(NCCN(C)C)c6)cccc5[nH]4)n[nH]c3cn2)c1 [Compound 454, N^1-(3-Fluoro-5-(2-(5-(5-(isopropylamino)pyridin-3-yl)-1H-pyrazolo[3,4-c]pyridin-3-yl)-1H-benzo[d]imidazol-4-yl)phenyl)-N^2,N^2-dimethylethane-1,2-diamine] | 117 | 300 | 51.6 |
| c1cncc(-c2cc3c(-c4nc5c(-c6cccnc6)cccc5[nH]4)n[nH]c3cn2)c1 [Compound 82, 5-(Pyridin-3-yl)-3-(4-(pyridin-3-yl)-1H-benzo[d]imidazol-2-yl)-1H-pyrazolo[3,4-c]pyridine] | 9 | 30 | 4.5 |
| CC(=O)c1ccc(-c2cccc3[nH]c(-c4n[nH]c5cnc(-c6cncc(NC(=O)CC(C)C)c6)cc45)nc23)s1 [Compound 392, N-(5-(3-(4-(5-Acetylthiophen-2-yl)-1H-benzo[d]imidazol-2-yl)-1H-pyrazolo[3,4-c]pyridin-5-yl)pyridin-3-yl)-3-methylbutanamide] | 267 | 2700 | 32.1 |
| Cc1ccc(-c2cccc3[nH]c(-c4n[nH]c5cnc(-c6cncc(N)c6)cc45)nc23)s1 [Compound 367, 5-(3-(4-(5-Methylthiophen-2-yl)-1H-benzo[d]imidazol-2-yl)-1H-pyrazolo[3,4-c]pyridin-5-yl)pyridin-3-amine] | 9 | 30 | 3.5 |
| c1cncc(-c2cc3c(-c4nc5ccccc5[nH]4)n[nH]c3cn2)c1 [Compound 238, 3-(1H-Benzo[d]imidazol-2-yl)-5-(pyridin-3-yl)-1H-pyrazolo[3,4-c]pyridine] | 57 | 100 | 7.7 |
| Cc1cn(-c2cccc3[nH]c(-c4n[nH]c5cnc(-c6cncc(NC(=O)CC(C)C)c6)cc45)nc23)cn1 [Compound 184, 3-Methyl-N-(5-(3-(4-(4-methyl-1H-imidazol-1-yl)-1H-benzo[d]imidazol-2-yl)-1H-pyrazolo[3,4-c]pyridin-5-yl)pyridin-3-yl)butanamide] | 277 | 30 | 55.1 |
| Nc1cncc(-c2cc3c(-c4nc5c(-c6ccccc6F)cccc5[nH]4)n[nH]c3cn2)c1 [Compound 55, 5-(3-(4-(2-Fluorophenyl)-1H-benzo[d]imidazol-2-yl)-1H-pyrazolo[3,4-c]pyridin-5-yl)pyridin-3-amine] | 9 | 900 | 19.5 |
| CN1CCN(c2cccc3[nH]c(-c4n[nH]c5cnc(-c6cncc(N)c6)cc45)nc23)CC1 [Compound 211, 5-(3-(4-(4-Methylpiperazin-1-yl)-1H-benzo[d]imidazol-2-yl)-1H-pyrazolo[3,4-c]pyridin-5-yl)pyridin-3-amine] | 613 | 2700 | 96.8 |
